Test: xn = mol fraction of the nth substance listed

CCN(CC)CC + Cc1ccc(C)cc1
303.15 K, 101 kPa
Conditions | viscosity [mPa·s]
x1 = 0.0103 | 0.5611
x1 = 0.02055 | 0.5576
x1 = 0.03043 | 0.5525
x1 = 0.04261 | 0.5488
x1 = 0.05408 | 0.5433
x1 = 0.06646 | 0.5381
x1 = 0.07602 | 0.5342
x1 = 0.08463 | 0.5307
x1 = 0.09589 | 0.5253
x1 = 0.1075 | 0.5207

ClC(Cl)(Cl)Cl + Cc1ccc(C)cc1
298.15 K, 101 kPa
Conditions | viscosity [mPa·s]
x2 = 0.1 | 0.87
x2 = 0.2 | 0.8339
x2 = 0.3 | 0.7997
x2 = 0.4 | 0.7675
x2 = 0.5 | 0.7372
x2 = 0.6 | 0.7087
x2 = 0.7 | 0.6816
x2 = 0.8 | 0.6556
x2 = 0.9 | 0.6301

ClC(Cl)(Cl)Cl + Cc1cccc(C)c1
298.15 K, 101 kPa
Conditions | viscosity [mPa·s]
x1 = 0.1974 | 0.609
x1 = 0.3803 | 0.665
x1 = 0.4687 | 0.716
x1 = 0.5267 | 0.751
x1 = 0.5964 | 0.792
x1 = 0.7155 | 0.851
x1 = 0.8693 | 0.894
x1 = 0.9105 | 0.902

CCN(CC)CC + Cc1ccccc1
303.15 K, 101 kPa
Conditions | viscosity [mPa·s]
x1 = 0.01196 | 0.5137
x1 = 0.02231 | 0.5093
x1 = 0.03105 | 0.5049
x1 = 0.04186 | 0.4993
x1 = 0.04881 | 0.4963
x1 = 0.0617 | 0.4911
x1 = 0.0685 | 0.4859
x1 = 0.07915 | 0.4823
x1 = 0.09159 | 0.4786
x1 = 0.1002 | 0.4755

ClC(Cl)(Cl)Cl + Cc1ccccc1
viscosity [mPa·s], 101 kPa
Conditions | 293.15 K | 298.15 K | 303.15 K | 313.15 K
x1 = 0.1022 | 0.6227 | 0.5867 | 0.5527 | 0.4932
x1 = 0.1977 | 0.6508 | 0.6111 | 0.5749 | 0.5126
x1 = 0.3029 | 0.6875 | 0.6446 | 0.606 | 0.5394
x1 = 0.4043 | 0.7215 | 0.6753 | 0.634 | 0.5628
x1 = 0.4982 | 0.7585 | 0.712 | 0.6656 | 0.5897
x1 = 0.5988 | 0.7983 | 0.7461 | 0.6988 | 0.6181
x1 = 0.7091 | 0.8428 | 0.7861 | 0.7353 | 0.6485
x1 = 0.8107 | 0.8905 | 0.8298 | 0.7755 | 0.6831
x1 = 0.916 | 0.9415 | 0.88 | 0.8249 | 0.719
x2 = 0.1 | – | 0.8643 | – | –
x2 = 0.2 | – | 0.8211 | – | –
x2 = 0.3 | – | 0.7802 | – | –
x2 = 0.4 | – | 0.7415 | – | –
x2 = 0.5 | – | 0.7049 | – | –
x2 = 0.6 | – | 0.6705 | – | –
x2 = 0.7 | – | 0.6381 | – | –
x2 = 0.8 | – | 0.6078 | – | –
x2 = 0.9 | – | 0.5794 | – | –

ClC(Cl)(Cl)Cl + Cc1ccccc1C
298.15 K, 101 kPa
Conditions | viscosity [mPa·s]
x1 = 0.0656 | 0.722
x1 = 0.2424 | 0.636
x1 = 0.4464 | 0.606
x1 = 0.5536 | 0.628
x1 = 0.5803 | 0.639
x1 = 0.6341 | 0.666
x1 = 0.793 | 0.772
x1 = 0.9312 | 0.872

CCCOC(C)=O + ClC(Cl)(Cl)Cl
101.33 kPa
Conditions | viscosity [mPa·s]
303.15 K, x2 = 0.0422 | 0.526
303.15 K, x2 = 0.1298 | 0.547
303.15 K, x2 = 0.2541 | 0.576
303.15 K, x2 = 0.3334 | 0.598
303.15 K, x2 = 0.488 | 0.639
303.15 K, x2 = 0.5271 | 0.657
303.15 K, x2 = 0.6005 | 0.676
303.15 K, x2 = 0.7049 | 0.716
303.15 K, x2 = 0.8748 | 0.784
303.15 K, x2 = 0.9403 | 0.815
313.15 K, x2 = 0.2073 | 0.494
313.15 K, x2 = 0.4055 | 0.541
313.15 K, x2 = 0.5078 | 0.568
313.15 K, x2 = 0.601 | 0.593
313.15 K, x2 = 0.802 | 0.661

CCN(CC)CC + ClC(Cl)Cl
298.15 K, 101 kPa
Conditions | viscosity [mPa·s]
x2 = 0.0983 | 0.389
x2 = 0.1979 | 0.442
x2 = 0.2978 | 0.503
x2 = 0.3989 | 0.567
x2 = 0.4988 | 0.618
x2 = 0.5829 | 0.64
x2 = 0.6859 | 0.631
x2 = 0.8008 | 0.604
x2 = 0.901 | 0.574

ClC(Cl)(Cl)Cl + ClC(Cl)Cl
Conditions | viscosity [mPa·s]
293.15 K, 101.33 kPa, x1 = 0.2087 | 0.6645
293.15 K, 101.33 kPa, x1 = 0.517 | 0.7319
293.15 K, 101.33 kPa, x1 = 0.9083 | 0.9238
298.15 K, 101 kPa, x1 = 0.1566 | 0.569
298.15 K, 101 kPa, x1 = 0.5099 | 0.659
298.15 K, 101 kPa, x1 = 0.7699 | 0.761
298.15 K, 101 kPa, x2 = 0.2298 | 0.761
298.15 K, 101 kPa, x2 = 0.51 | 0.659
298.15 K, 101 kPa, x2 = 0.8437 | 0.569
298.15 K, 101.33 kPa, x1 = 0.2087 | 0.6296
298.15 K, 101.33 kPa, x1 = 0.517 | 0.6888
298.15 K, 101.33 kPa, x1 = 0.9083 | 0.8561
298.16 K, 101 kPa, x2 = 0.151 | 0.816
298.16 K, 101 kPa, x2 = 0.328 | 0.732
298.16 K, 101 kPa, x2 = 0.61 | 0.633
298.16 K, 101 kPa, x2 = 0.803 | 0.583
303.15 K, 101.3 kPa, x1 = 0.502 | 0.6248
303.15 K, 101.33 kPa, x1 = 0.2087 | 0.5964
303.15 K, 101.33 kPa, x1 = 0.517 | 0.6543
303.15 K, 101.33 kPa, x1 = 0.9083 | 0.8041
308.15 K, 101.33 kPa, x1 = 0.2087 | 0.5644
308.15 K, 101.33 kPa, x1 = 0.517 | 0.6241
308.15 K, 101.33 kPa, x1 = 0.9083 | 0.7523
313.15 K, 101.33 kPa, x1 = 0.2087 | 0.5501
313.15 K, 101.33 kPa, x1 = 0.517 | 0.5928
313.15 K, 101.33 kPa, x1 = 0.9083 | 0.7143
318.15 K, 101.33 kPa, x1 = 0.2087 | 0.523
318.15 K, 101.33 kPa, x1 = 0.517 | 0.5657
318.15 K, 101.33 kPa, x1 = 0.9083 | 0.6686
323.15 K, 101.33 kPa, x1 = 0.2087 | 0.5032
323.15 K, 101.33 kPa, x1 = 0.517 | 0.5444
323.15 K, 101.33 kPa, x1 = 0.9083 | 0.6335

Reference: the CheMixHub viscosity set
